According to patent US20250388593A1 (MITSUBISHI TANABE PHARMA CORPORATION, priority 2023, published 2025):

biological target: CRBN truncate (318-426) (Homo sapiens (Human), UniProt Q96SW2); assay: Measurement of molecular interactions using surface plasmon resonance (SPR), Biacore T200; format: binding; conditions: 25° C., immobilized CRBN truncate, upper limit of measurement 200 μM
Description: The instrument used was the Biacore T200 (manufactured by Cytiva). The CRBN truncate (318-426) was obtained by expressing a construct with an Avi-tag added at the C-terminus. The sensor chip used was Sensor Chip SA (manufactured by Cytiva). The CRBN truncate was immobilized using the affinity between SA (streptavidin) on the sensor chip and the Avi-tag. The running buffer was a mixture of 10 mM HEPES pH 7.5, 150 mM NaCl, 1 mM TCEP, 0.005% Tween 20, and 2% DMSO. […] Contact time and dissociation time were set at 60 seconds and 120 seconds, respectively.

Sequence of CRBN truncate (318-426) (Q96SW2 318-426): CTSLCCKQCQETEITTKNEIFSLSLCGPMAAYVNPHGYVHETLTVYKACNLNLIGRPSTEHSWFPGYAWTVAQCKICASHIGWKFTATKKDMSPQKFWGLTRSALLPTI

Compound	Kd [µM]
CCOC(=O)c1ccc2nc(N3CCC4(CCCC(=O)NC4=O)C3)sc2c1 (centres unmarked) [Example 73, Ethyl 2-(6,8-dioxo-2,7-diazaspiro[4.6]undecane-2-yl)-1,3-benzothiazole-6-carboxylate]	< 50
O=C1CCCC2(CCN(c3nc4ncccc4s3)C2)C(=O)N1 (centres unmarked) [Example 74, 2-([1,3]thiazolo[4,5-b]pyridin-2-yl)-2,7-diazaspiro[4.6]undecane-6,8-dione]	≥ 100
O=C1CCCC2(CCN(c3ccc([N+](=O)[O-])cn3)C2)C(=O)N1 (centres unmarked) [Example 75, 2-(5-nitro-2-pyridyl)-2,7-diazaspiro[4.6]undecane-6,8-dione]	< 50
O=Cc1ccc(N2CCC3(CCCC(=O)NC3=O)C2)nc1 (centres unmarked) [Example 76, 6-(6,8-Dioxo-2,7-diazaspiro[4.6]undecane-2-yl)pyridine-3-carbaldehyde]	≥ 100
O=C1CCCC2(CCN(c3ncc([N+](=O)[O-])cc3Cl)C2)C(=O)N1 (centres unmarked) [Example 77, 2-(3-chloro-5-nitro-2-pyridyl)-2,7-diazaspiro[4.6]undecane-6,8-dione]	< 50
O=C1CCCC2(CCN(c3ncc([N+](=O)[O-])cc3C(F)(F)F)C2)C(=O)N1 (centres unmarked) [Example 79, 2-(5-nitro-3-(trifluoromethyl)-2-pyridyl)-2,7-diazaspiro[4.6]undecane-6,8-dione]	≥ 100
O=C1CCCC2(CCN(c3ccc([N+](=O)[O-])cc3)C2)C(=O)N1 (centres unmarked) [Example 80, 2-(4-Nitrophenyl)-2,7-diazaspiro[4.6]undecane-6,8-dione]	< 50
Cc1cc(N2CCC3(CCCC(=O)NC3=O)C2)ccc1[N+](=O)[O-] (centres unmarked) [Example 81, 2-(3-Methyl-4-nitrophenyl)-2,7-diazaspiro[4.6]undecane-6,8-dione]	≥ 100
Cc1cc([N+](=O)[O-])ccc1N1CCC2(CCCC(=O)NC2=O)C1 (centres unmarked) [Example 82, 2-(2-Methyl-4-nitrophenyl)-2,7-diazaspiro[4.6]undecane-6,8-dione]	50 to 100
O=C1CCCC2(CCN(c3ccc([N+](=O)[O-])cc3F)C2)C(=O)N1 (centres unmarked) [Example 83, 2-(2-Fluoro-4-nitrophenyl)-2,7-diazaspiro[4.6]undecane-6,8-dione]	< 50
O=C1CCCC2(CCN(c3ccc([N+](=O)[O-])cc3Cl)C2)C(=O)N1 (centres unmarked) [Example 84, 2-(2-Chloro-4-nitrophenyl)-2,7-diazaspiro[4.6]undecane-6,8-dione]	< 50
Nc1ccc2nc(N3CCC4(CCCC(=O)NC4=O)C3)sc2c1 (centres unmarked) [Example 85, 2-(6-Amino-1,3-benzothiazol-2-yl)-2,7-diazaspiro[4.6]undecane-6,8-dione]	50 to 100
Nc1ccc(N2CCC3(CCCC(=O)NC3=O)C2)c(F)c1 (centres unmarked) [Example 86, 2-(4-Amino-2-fluorophenyl)-2,7-diazaspiro[4.6]undecane-6,8-dione]	≥ 100
CC(=O)Nc1ccc2nc(N3CCC4(CCCC(=O)NC4=O)C3)sc2c1 (centres unmarked) [Example 87, N-[2-(6,8-dioxo-2,7-diazaspiro[4.6]undecan-2-yl)-1,3-benzothiazol-6-yl]acetamide]	≥ 100
CC(=O)Nc1ccc(N2CCC3(CCCC(=O)NC3=O)C2)c(F)c1 (centres unmarked) [Example 88, N-[4-(6,8-dioxo-2,7-diazaspiro[4.6]undecan-2-yl)-3-fluorophenyl]acetamide]	≥ 100
CC(=O)N1CCN(Cc2ccc(N3CCC4(CCCC(=O)NC4=O)C3)nc2)CC1 (centres unmarked) [Example 89, 2-[5-[(4-Acetylpiperazin-1-yl)methyl]pyridin-2-yl]-2,7-diazaspiro[4.6]undecane-6,8-dione]	≥ 100
CC(C)(C)OC(=O)c1cnc(N2CCCC(=O)NC2=O)s1 [Example 115, tert-Butyl 2-(2,4-dioxo-1,3-diazepan-1-yl) thiazole-5-carboxylate]	50 to 100
O=C1CCCN(c2nc3ccc([N+](=O)[O-])cc3s2)C(=O)N1 [Example 116, 1-(6-Nitro-1,3-benzothiazol-2-yl)-1,3-diazepane-2,4-dione]	< 50
O=C1CCCN(c2ccc3ncccc3c2)C(=O)N1 [Example 117, 1-Quinolin-6-yl-1,3-diazepane-2,4-dione]	≥ 100
Nc1ccc2nc(N3CCCC(=O)NC3=O)sc2c1 [Example 118, 1-(6-Amino-1,3-benzothiazol-2-yl)-1,3-diazepane-2,4-dione]	≥ 100
CN(c1ccc([N+](=O)[O-])cc1)C1CCCC(=O)NC1=O (centres unmarked) [Example 120, 3-(N-Methyl-4-nitro-anilino) azepane-2,7-dione]	≥ 100
CC(=O)Nc1ccc(N(C)C2CCCC(=O)NC2=O)cc1 (centres unmarked) [Example 121, N-[4-[(2,7-Dioxoazepan-3-yl)-methyl-amino]phenyl]acetamide]	≥ 100

Continued, values first:

Kd [µM]	Compound
< 50	CC(C)(C)OC(=O)c1ccc(N2CCC3(CCCC(=O)NC3=O)C2)nc1 (centres unmarked) [Example 90-1, tert-Butyl 6-(6,8-dioxo-2,7-diazaspiro [4.6]undecan-2-yl) pyridine-3-carboxylate]
≥ 100	CC(C)(C)OC(=O)c1ccc(N2CCC3(CCCC(=O)NC3=O)C2=O)nc1 (centres unmarked) [Example 90-2, tert-Butyl 6-(1,9,11-trioxo-2,10-diazaspiro [4.6]undecan-2-yl) pyridine-3-carboxylate]
50 to 100	CC(C)(C)OC(=O)c1ccnc(N2CCC3(CCCC(=O)NC3=O)C2)c1 (centres unmarked) [Example 91, tert-Butyl 2-(6,8-dioxo-2,7-diazaspiro [4.6]undecan-2-yl) pyridine-4-carboxylate]
≥ 100	CC(C)(C)OC(=O)c1cccc(N2CCC3(CCCC(=O)NC3=O)C2)n1 (centres unmarked) [Example 92, tert-Butyl 6-(6,8-dioxo-2,7-diazaspiro [4.6]undecan-2-yl) pyridine-2-carboxylate]
≥ 100	CC(C)(C)OC(=O)c1ccc(N2CCCC3(CCCC(=O)NC3=O)C2)nc1 (centres unmarked) [Example 93, tert-Butyl 6-(7,9-dioxo-2,8-diazaspiro [5.6]dodecan-2-yl) pyridine-3-carboxylate]
50 to 100	CC(C)(C)OC(=O)c1ccc(N2CCC3(CCCC(=O)NC3=O)CC2)nc1 [Example 94, tert-Butyl 6-(7,9-dioxo-3,8-diazaspiro [5.6]dodecan-3-yl) pyridine-3-carboxylate]
≥ 100	CC(C)(C)OC(=O)c1cnc(N2CCC3(CCCC(=O)NC3=O)C2)s1 (centres unmarked) [Example 95, tert-Butyl 2-(6,8-dioxo-2,7-diazaspiro [4.6]undecan-2-yl)-1,3-thiazole-5-carboxylate]
≥ 100	CNC(=O)c1ccc(N2CCC3(CCCC(=O)NC3=O)C2)nc1 (centres unmarked) [Example 96, 6-(6,8-Dioxo-2,7-diazaspiro [4.6]undecan-2-yl)-N-methylpyridine-3-carboxamide]
≥ 100	CC(C)(C)OC(=O)N1CCN(C(=O)c2ccc(N3CCC4(CCCC(=O)NC4=O)C3)nc2)CC1 (centres unmarked) [Example 97, tert-Butyl 4-[6-(6,8-dioxo-2,7-diazaspiro [4.6]undecan-2-yl)pyridine-3-carbonyl]piperazine-1-carboxylate]
≥ 100	CC(C)(C)OC(=O)N1CCN(Cc2ccc(N3CCC4(CCCC(=O)NC4=O)C3)nc2)CC1 (centres unmarked) [Example 99, tert-Butyl 4-[[6-(6,8-dioxo-2,7-diazaspiro [4.6]undecan-2-yl)pyridin-3-yl]methyl]piperazine-1-carboxylate]
≥ 100	O=C1CCCC2(CCCN(C(=O)c3ccccc3)C2)C(=O)N1 (centres unmarked) [Example 104, 2-Benzoyl-2,8-diazaspiro [5.6]dodecane-7,9-dione]
≥ 100	O=C1CCCC2(CCN(C(=O)c3ccccc3)CC2)C(=O)N1 [Example 106, 3-Benzoyl-3,8-diazaspiro [5.6]dodecane-7,9-dione]
50 to 100	CC(C)(C)OC(=O)c1ccc(N2CCC3(CCCC(=O)NC3=O)CC2=O)nc1 (centres unmarked) [Example 108, tert-Butyl 6-(4,7,9-trioxo-3,8-diazaspiro [5.6]dodecan-3-yl) pyridine-3-carboxylate]
< 50	CC(C)(C)OC(=O)c1ccc(N2CCC3(CCCC(=O)NC3=O)CC2=O)cc1 (centres unmarked) [Example 109, tert-Butyl 4-(4,7,9-trioxo-3,8-diazaspiro [5.6]dodecan-3-yl) benzoate]
≥ 100	CC(C)(C)OC(=O)c1cccc(N2CCC3(CCCC(=O)NC3=O)CC2=O)c1 (centres unmarked) [Example 110, tert-Butyl 3-(4,7,9-trioxo-3,8-diazaspiro [5.6]dodecan-3-yl) benzoate]
50 to 100	CC(C)(C)OC(=O)c1ccc(CN2CCC3(CCCC(=O)NC3=O)CC2=O)cc1 (centres unmarked) [Example 111, tert-Butyl 4-[(4,7,9-trioxo-3,8-diazaspiro [5.6]dodecan-3-yl)methyl]benzoate]
≥ 100	CC(C)(C)OC(=O)c1ccc(N2CC3(CCCC(=O)NC3=O)CC2=O)nc1 (centres unmarked) [Example 113, tert-Butyl 6-(3,6,8-trioxo-2,7-diazaspiro [4.6]undecan-2-yl) pyridine-3-carboxylate]
≥ 100	O=C1CCCC2(CCN(C(=O)c3ccccc3)C2)C(=O)N1 (centres unmarked) [Example 122, 2-Benzoyl-2,7-diazaspiro [4.6]undecane-6,8-dione]
< 50	CC(C)(C)OC(=O)c1cccc(N2CCC3(CCCC(=O)NC3=O)C2)c1 (centres unmarked) [Example 123, tert-Butyl 3-(6,8-dioxo-2,7-diazaspiro [4.6]undecan-2-yl) benzoate]
≥ 100	COc1ccnc(N2CCC3(CCCC(=O)NC3=O)C2)c1 (centres unmarked) [Example 125, 2-(4-Methoxy-2-pyridyl)-2,7-diazaspiro [4.6]undecane-6,8-dione]
≥ 100	CC(C)(C)OC(=O)N1CCN(c2ccnc(N3CCC4(CCCC(=O)NC4=O)C3)c2)CC1 (centres unmarked) [Example 126, tert-Butyl 4-[2-(6,8-dioxo-2,7-diazaspiro [4.6]undecan-2-yl)-4-pyridyl]piperazine-1-carboxylate]
≥ 100	O=C1CCCC2(CCN(c3ncc(Br)cn3)C2)C(=O)N1 (centres unmarked) [Example 127, 2-(5-Bromopyrimidin-2-yl)-2,7-diazaspiro [4.6]undecane-6,8-dione]
